From the supplement of paper PMC10307832

Columns and labels:
Assay in all cases: relative viability (nuclei count vs DMSO), 5 days (fraction); higher = more cells survive
[1] = compound: O[C@H]1CC[C@H](Nc2ncc3nc(Nc4c(F)cc(F)cc4F)n([C@H]4CCOC4)c3n2)CC1 [Tanzisertib] + CC(C)C[C@H](NC(=O)[C@H](Cc1ccccc1)NC(=O)c1cnccn1)B(O)O [Bortezomib] (partner 0.002 µM)
Method in brief: (§1)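 Dosing by pin tool came one day after lung cancer cell lines were seeded in 1536-well plates, using either one drug or a fixed anchor-drug dose plus five library-drug doses (not always all listed) in √10 steps. After 5 days, nuclei were counted on 4× images. Relative viability is treated-well nuclei count divided by vehicle-well nuclei count, and values are medians of duplicate plates.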

[2] = compound: C1CNCCC1C2=CC(=NN2)C3=CC=NC=C3 + CC1(C)CCC(c2ccc(Cl)cc2)=C(CN2CCN(c3ccc(C(=O)NS(=O)(=O)c4ccc(N[C@H](CCN5CCOCC5)CSc5ccccc5)c(S(=O)(=O)C(F)(F)F)c4)cc3)CC2)C1 [Navitoclax] (partner 0.5 µM)
Method in brief: as §1

[3] = compound: C[C@@H](N)c1ccc(C(=O)Nc2ccnc3[nH]ccc23)cc1 + Cc1cc(Nc2cc(N3CCN(C)CC3)nc(Sc3ccc(NC(=O)C4CC4)cc3)n2)n[nH]1 [Tozasertib] (partner 0.1 µM)
Method in brief: as §1

[4] = compound: C1CNCCC1C2=CC(=NN2)C3=CC=NC=C3 + Cc1nc(NC(=O)N2CCC[C@H]2C(N)=O)sc1-c1ccnc(C(C)(C)C(F)(F)F)c1 [Alpelisib] (partner 2 µM)
Method in brief: as §1

UMC-11
relative viability ([1]; first compound 0.08 µM): 0.754
relative viability ([1]; first compound 0.253 µM): 0.749
relative viability ([1]; first compound 0.8 µM): 0.825
relative viability ([1]; first compound 2.53 µM): 0.709
relative viability ([1]; first compound 8 µM): 0.946
relative viability ([2]; first compound 0.08 µM): 0.3
relative viability ([2]; first compound 0.8 µM): 0.344
relative viability ([2]; first compound 2.53 µM): 0.321
relative viability ([2]; first compound 8 µM): 0.355
relative viability ([3]; first compound 0.04 µM): 0.215
relative viability ([3]; first compound 0.1265 µM): 0.18
relative viability ([3]; first compound 0.4 µM): 0.205
relative viability ([3]; first compound 4 µM): 0.198
relative viability ([4]; first compound 0.08 µM): 0.815
relative viability ([4]; first compound 0.8 µM): 1.22
relative viability ([4]; first compound 2.53 µM): 0.911
relative viability ([4]; first compound 8 µM): 1.03
